A compilation of properties of binary mixtures (doi:10.1021/acs.jced.1c00023)

Assay: xn = mol fraction of the nth substance listed
Settings: 101.3 kPa

Oc1cccc(O)c1O + CCCCCCCCCCCC[N+](C)(C)C.[Br-]
x2 = 0.333
Settings | electrical conductivity [S/m] | speed of sound [m/s] | viscosity [mPa·s]
293.15 K | 0.0047 | 1614.6 | 7500
298.15 K | 0.0082 | 1592.1 | 5650
303.15 K | 0.0139 | 1572.5 | 3900
308.15 K | 0.0234 | 1554.9 | 2300
313.15 K | 0.0364 | 1538.8 | 1500
318.15 K | 0.0539 | 1523.4 | 1000
323.15 K | 0.0773 | 1508.7 | 750
328.15 K | 0.105 | 1494.3 | 550

Oc1cccc(O)c1O + CCC[N+](CCC)(CCC)CCC.[Br-]
x2 = 0.5
Settings | electrical conductivity [S/m] | speed of sound [m/s] | viscosity [mPa·s]
298.15 K | 0.0031 | 1855.2 | 25000
318.15 K | 0.0259 | 1704.1 | 4800
323.15 K | 0.04 | 1674.1 | 3500
328.15 K | 0.0703 | 1652.9 | 2550
